Laboratory results from ChEMBL document CHEMBL5291721, “A preclinical secondary pharmacology resource illuminates target-adverse drug reaction associations of marketed drugs” (Nat Commun, 2023).

What was measured:
[1] = biological target: Beta-2 adrenergic receptor (Homo sapiens, UniProt P07550)
[2] = biological target: T1, Cholecystokinin receptor type A (Homo sapiens, UniProt P32238)
T1 sequence (P32238 whole entry): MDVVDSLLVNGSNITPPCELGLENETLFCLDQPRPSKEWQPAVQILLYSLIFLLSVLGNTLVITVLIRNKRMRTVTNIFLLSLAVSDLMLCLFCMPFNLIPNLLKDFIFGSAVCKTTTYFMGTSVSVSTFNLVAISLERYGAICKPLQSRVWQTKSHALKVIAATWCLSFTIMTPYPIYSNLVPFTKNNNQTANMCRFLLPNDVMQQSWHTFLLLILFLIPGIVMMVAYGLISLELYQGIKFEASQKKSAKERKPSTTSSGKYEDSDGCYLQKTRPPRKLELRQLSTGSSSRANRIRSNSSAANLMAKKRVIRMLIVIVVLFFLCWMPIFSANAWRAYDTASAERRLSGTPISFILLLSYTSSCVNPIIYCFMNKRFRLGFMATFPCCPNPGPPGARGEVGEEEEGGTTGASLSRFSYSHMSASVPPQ

[3] = biological target: T2, 5-hydroxytryptamine receptor 1A (Homo sapiens, UniProt P08908); assay type: functional, cell-based
T2 sequence (P08908 whole entry): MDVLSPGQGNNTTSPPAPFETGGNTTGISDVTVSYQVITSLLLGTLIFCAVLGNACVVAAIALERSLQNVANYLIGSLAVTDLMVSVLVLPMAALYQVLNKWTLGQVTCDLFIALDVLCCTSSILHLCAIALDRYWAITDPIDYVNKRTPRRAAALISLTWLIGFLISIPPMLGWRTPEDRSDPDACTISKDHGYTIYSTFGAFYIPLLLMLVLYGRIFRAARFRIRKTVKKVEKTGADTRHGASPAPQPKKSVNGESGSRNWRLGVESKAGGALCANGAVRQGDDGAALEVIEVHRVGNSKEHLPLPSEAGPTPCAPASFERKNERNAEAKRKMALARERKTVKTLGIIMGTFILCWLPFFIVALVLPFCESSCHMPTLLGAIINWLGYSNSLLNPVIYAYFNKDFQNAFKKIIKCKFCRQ

[4] = biological target: T3, 5-hydroxytryptamine receptor 3A (Homo sapiens, UniProt P46098); assay type: functional
T3 sequence (P46098 whole entry): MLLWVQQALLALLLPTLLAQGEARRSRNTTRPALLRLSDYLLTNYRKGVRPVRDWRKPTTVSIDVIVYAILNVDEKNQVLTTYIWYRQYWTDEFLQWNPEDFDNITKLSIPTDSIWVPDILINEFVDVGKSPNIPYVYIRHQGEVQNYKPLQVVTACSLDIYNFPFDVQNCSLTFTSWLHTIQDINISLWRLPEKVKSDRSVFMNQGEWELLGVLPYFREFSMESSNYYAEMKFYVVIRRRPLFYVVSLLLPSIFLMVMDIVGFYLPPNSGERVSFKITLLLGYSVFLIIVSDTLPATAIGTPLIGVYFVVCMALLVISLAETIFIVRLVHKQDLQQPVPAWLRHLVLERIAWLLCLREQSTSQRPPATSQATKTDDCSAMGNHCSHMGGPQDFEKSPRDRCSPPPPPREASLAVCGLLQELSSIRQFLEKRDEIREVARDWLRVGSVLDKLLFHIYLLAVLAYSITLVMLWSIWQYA

[5] = biological target: T4, Neuropeptide Y receptor type 1 (Homo sapiens, UniProt P25929)
T4 sequence (P25929 whole entry): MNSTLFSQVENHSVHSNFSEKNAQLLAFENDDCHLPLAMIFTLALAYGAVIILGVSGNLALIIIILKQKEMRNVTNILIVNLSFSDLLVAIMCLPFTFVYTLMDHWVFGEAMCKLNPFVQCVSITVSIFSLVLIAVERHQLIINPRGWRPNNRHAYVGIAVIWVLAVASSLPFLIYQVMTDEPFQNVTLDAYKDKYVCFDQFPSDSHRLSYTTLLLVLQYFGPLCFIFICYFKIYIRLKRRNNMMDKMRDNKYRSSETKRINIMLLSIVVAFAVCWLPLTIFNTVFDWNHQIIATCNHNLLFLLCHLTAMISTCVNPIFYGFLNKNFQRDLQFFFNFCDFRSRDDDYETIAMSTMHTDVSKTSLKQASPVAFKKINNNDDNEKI
Note: assay procedure not described here.

Beta-2 adrenergic receptor, sequence (P07550 whole entry): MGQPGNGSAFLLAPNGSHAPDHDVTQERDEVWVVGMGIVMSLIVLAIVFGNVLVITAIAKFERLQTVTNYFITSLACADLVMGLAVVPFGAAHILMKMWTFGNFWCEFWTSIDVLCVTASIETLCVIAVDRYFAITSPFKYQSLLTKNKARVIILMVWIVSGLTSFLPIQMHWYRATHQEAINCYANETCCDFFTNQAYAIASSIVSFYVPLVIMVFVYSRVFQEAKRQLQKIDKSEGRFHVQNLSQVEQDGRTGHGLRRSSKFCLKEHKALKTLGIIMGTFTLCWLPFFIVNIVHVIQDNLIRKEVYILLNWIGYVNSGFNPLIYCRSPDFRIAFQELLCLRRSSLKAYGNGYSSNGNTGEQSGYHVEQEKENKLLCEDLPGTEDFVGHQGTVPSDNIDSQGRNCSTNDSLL

Structure (SMILES)	AC50 [1]	AC50 [2]	AC50 [3]	AC50 [4]	AC50 [5]
CCOc1nc2cccc(C(=O)O)c2n1Cc1ccc(-c2ccccc2-c2nnn[nH]2)cc1	> 10 µM	> 30 µM	> 30 µM	> 30 µM	> 10 µM
CCCc1nc2c(C)cc(-c3nc4ccccc4n3C)cc2n1Cc1ccc(-c2ccccc2C(=O)O)cc1	> 30 µM	2.43 µM	> 30 µM	> 30 µM	> 30 µM
CCOc1cc([C@@H](CS(C)(=O)=O)N2C(=O)c3cccc(NC(C)=O)c3C2=O)ccc1OC	–	> 30 µM	> 30 µM	> 30 µM	–
CC(=O)Nc1ccc(CC(=O)O)cc1 [ACTARIT]	> 30 µM	> 30 µM	> 30 µM	> 30 µM	> 30 µM
CC(C(=O)O)c1ccc2oc(-c3ccc(Cl)cc3)nc2c1 (stereo not given) [BENOXAPROFEN]	> 30 µM	> 30 µM	> 30 µM	> 30 µM	> 30 µM
CC1(C)S[C@@H]2[C@H](NC(=O)C(C(=O)O)c3ccccc3)C(=O)N2[C@H]1C(=O)O (stereo not given in full) [CARBENICILLIN]	–	> 30 µM	> 30 µM	> 30 µM	> 30 µM
Cc1nnc(SCC2=C(C(=O)O)N3C(=O)[C@@H](NC(=O)Cn4cnnn4)[C@H]3SC2)s1 [CEFAZOLIN]	–	> 300 µM	> 300 µM	> 300 µM	> 30 µM
CC=CC1=C(C(=O)O)N2C(=O)[C@@H](NC(=O)[C@H](N)c3ccc(O)cc3)[C@H]2SC1 [CEFPROZIL]	> 30 µM	> 30 µM	> 30 µM	> 30 µM	> 30 µM
CC(C)(O/N=C(\C(=O)N[C@@H]1C(=O)N2C(C(=O)[O-])=C(C[n+]3ccccc3)CS[C@H]12)c1csc(N)n1)C(=O)O [CEFTAZIDIME]	–	> 300 µM	> 300 µM	> 300 µM	> 30 µM
CCCNC(=O)NS(=O)(=O)c1ccc(Cl)cc1 [CHLORPROPAMIDE]	> 10 µM	> 30 µM	> 10 µM	> 30 µM	> 30 µM
Clc1ccc(Cn2c(CN3CCCC3)nc3ccccc32)cc1 [CLEMIZOLE]	–	> 30 µM	> 30 µM	> 30 µM	–
CCC(=O)O[C@]1(C(=O)CCl)[C@@H](C)C[C@H]2[C@@H]3CCC4=CC(=O)C=C[C@]4(C)[C@@]3(F)[C@@H](O)C[C@@]21C [CLOBETASOL PROPIONATE]	–	> 30 µM	–	> 30 µM	> 10 µM
Cc1nc(Nc2ncc(C(=O)Nc3c(C)cccc3Cl)s2)cc(N2CCN(CCO)CC2)n1 [DASATINIB]	> 10 µM	10.2 µM	> 30 µM	> 30 µM	> 30 µM
CC(C)Cc1ccc([C@H](C)C(=O)O)cc1 [DEXIBUPROFEN]	–	> 30 µM	> 30 µM	> 30 µM	–
CNC[C@H](O)c1ccc(O)c(O)c1 [EPINEPHRINE]	–	> 30 µM	–	> 30 µM	–
O=C(O)Cc1ccccc1Oc1ccc(Cl)cc1Cl [FENCLOFENAC]	> 10 µM	> 30 µM	> 10 µM	> 30 µM	> 30 µM

Structure (SMILES)	AC50 [1]	AC50 [2]	AC50 [3]	AC50 [4]	AC50 [5]
Cc1onc(-c2c(F)cccc2Cl)c1C(=O)N[C@@H]1C(=O)N2[C@@H]1SC(C)(C)[C@@H]2C(=O)O [FLOXACILLIN]	–	> 30 µM	> 30 µM	> 30 µM	–
CCCCCCCN(CC)CCCC(O)c1ccc(NS(C)(=O)=O)cc1 (stereo not given) [IBUTILIDE]	> 30 µM	> 30 µM	–	> 30 µM	> 30 µM
COc1cc(C(C)=O)ccc1OCCCN1CCC(c2noc3cc(F)ccc23)CC1 [ILOPERIDONE]	> 10 µM	> 30 µM	0.055 µM	> 30 µM	–
CC[C@H](C)C(=O)O[C@H]1C[C@@H](C)C=C2C=C[C@H](C)[C@H](CC[C@@H]3C[C@@H](O)CC(=O)O3)[C@H]21 [LOVASTATIN]	> 10 µM	> 30 µM	> 10 µM	> 30 µM	> 30 µM
CC[C@@H](CO)NC(=O)[C@@H]1C=C2c3cccc4c3c(cn4C)C[C@H]2N(C)C1 [METHYSERGIDE]	> 10 µM	> 30 µM	–	> 30 µM	> 30 µM
CNC(=C[N+](=O)[O-])NCCSCc1csc(CN(C)C)n1 [NIZATIDINE]	> 10 µM	> 10 µM	> 10 µM	> 30 µM	> 10 µM
CN1Cc2c(N)cccc2C(c2ccccc2)C1 (stereo not given) [NOMIFENSINE]	–	> 30 µM	–	> 30 µM	> 30 µM
CC(CN1c2ccccc2Sc2ccccc21)N(C)C (stereo not given) [PROMETHAZINE]	> 10 µM	> 30 µM	> 10 µM	> 30 µM	> 30 µM
CCCc1cc(=O)[nH]c(=S)[nH]1 [PROPYLTHIOURACIL]	> 10 µM	> 10 µM	> 10 µM	> 30 µM	> 10 µM
Cn1cc(C(=O)[C@@H]2CCc3nc[nH]c3C2)c2ccccc21 [RAMOSETRON]	> 30 µM	> 30 µM	–	0.0004 µM	> 30 µM
CN(CCOc1ccc(CC2SC(=O)NC2=O)cc1)c1ccccn1 (stereo not given) [ROSIGLITAZONE]	> 30 µM	> 30 µM	–	> 30 µM	> 30 µM
S=P(N1CC1)(N1CC1)N1CC1 [THIOTEPA]	–	> 30 µM	> 10 µM	> 30 µM	–
CC(C)C[C@H](NC(=O)[C@@H](O)[C@H](N)Cc1ccccc1)C(=O)O [UBENIMEX]	–	–	> 30 µM	> 30 µM	–
CC(C)[C@H](N)C(=O)OCCOCn1cnc2c(=O)[nH]c(N)nc21 [VALACYCLOVIR]	> 10 µM	> 30 µM	> 10 µM	> 30 µM	> 30 µM
COc1cc(C(=O)NS(=O)(=O)c2ccccc2C)ccc1Cc1cn(C)c2ccc(NC(=O)OC3CCCC3)cc12 [ZAFIRLUKAST]	> 10 µM	> 10 µM	–	> 30 µM	> 10 µM
O=C1Cc2cc(CCN3CCN(c4nsc5ccccc45)CC3)c(Cl)cc2N1 [ZIPRASIDONE]	> 30 µM	> 30 µM	–	> 10 µM	> 30 µM
